Source: patent publication US20060204596A1, “Formulation of a mixture of Free-B-Ring flavonoids and flavans as a therapeutic agent” (Unigen Pharmaceuticals, Inc., priority 2005, published 2006)
Where two headings read alike, the source gives them in different places. Marks after values point to notes of the source that are not given here. Each block holds one compound with its values, some of them ahead of it.

Assays:
COX-2 = target: T1, COX-2 (Homo sapiens, UniProt P35354); assay: COX-2 enzymatic inhibition; assay type: biochemical
T1 sequence (P35354 18-604): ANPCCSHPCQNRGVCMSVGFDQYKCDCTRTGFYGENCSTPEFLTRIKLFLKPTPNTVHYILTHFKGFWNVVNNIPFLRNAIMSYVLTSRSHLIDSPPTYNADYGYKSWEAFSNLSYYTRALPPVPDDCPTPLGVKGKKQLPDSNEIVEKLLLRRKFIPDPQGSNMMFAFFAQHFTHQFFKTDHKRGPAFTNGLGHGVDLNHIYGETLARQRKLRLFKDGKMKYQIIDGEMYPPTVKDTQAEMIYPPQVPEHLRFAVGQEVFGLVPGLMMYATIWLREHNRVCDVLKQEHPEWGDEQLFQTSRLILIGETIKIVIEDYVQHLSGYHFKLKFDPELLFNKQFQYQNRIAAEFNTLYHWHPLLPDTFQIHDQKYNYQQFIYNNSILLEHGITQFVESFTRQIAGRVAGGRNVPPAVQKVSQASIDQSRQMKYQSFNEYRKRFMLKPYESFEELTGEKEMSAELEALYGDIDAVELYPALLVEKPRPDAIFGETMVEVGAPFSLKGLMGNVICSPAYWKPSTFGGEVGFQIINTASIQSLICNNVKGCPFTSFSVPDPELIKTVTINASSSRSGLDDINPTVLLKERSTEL
Source text: (§1) UP736 is a natural product derived from two traditional plants that contain antioxidants and other naturally occurring dietary compounds that aid the body in multiple ways.

[1] = tested on: arachidonic acid induced platelet aggregation; assay: platelet aggregation assay in platelet rich plasma; assay type: cell-based, New Zealand Rabbits; details: UP736 0
Method: UP736, aspirin or combinations thereof were dissolved in 0.3% DMSO and incubated with the plasma at 37° C. for 5 minutes. Agonist or antagonist effect of the compounds was quantified by optical density of aggregation. Significance criteria used for agonist effect is that >50% platelet aggregation relative to arachidonic acid response. […] In this assay, various concentrations of UP736 (10, 2 and 0.2 μM) and aspirin (30 and 3 μM) were tested individually as either agonist or antagonist of platelet aggregation in platelet rich rabbit plasma. […] In another assay (Test# 2) performed under the same experimental conditions, mixtures of UP736 at lower concentrations (0.2, 0.067, 0.022 and 0.007 μM) and aspirin at a concentration of 3 μM were tested.

bleeding time [2] = assay: bleeding time assay (Test #3, #4); assay type: in vivo, ICR male mice
Method: The bleeding time assay was conducted according to the method described by […] and Kling (1997) Thrombosis Research 10:619-622) and Butler et al. (1982) Thromb Haemostas 47:46-49. Test articles were administered to five ICR male mice one hour before standardized transection of the tip (1.0 mm) of each tail. The mice restrained in holders were immediately suspended vertically with the tail tips immersed in a test tube containing saline at 37° C. There was no maximum cut-off time set. The measurements started as actual bleeding was observed and stopped as bleeding ceased for 15 seconds or longer at any time. Data were analyzed using the Student's t-test. In one assay (Test #3), aspirin alone at 3, 10, 65 and 100 mg/kg or UP736 at a dose of 100 mg/kg, alone or in combination with aspirin at 3, 10 and 65 mg/kg was administered orally to groups of 5 ICR male mice. […] The assay was repeated under the same experimental conditions (Test # 4).

bleeding time [3] = tested on: bleeding time; design: species or system ICR derived male mice; details: male, ICR, mouse, in vivo, po, 1 h
Method: To verify the bleeding time results, UP736 or UP736 in combination with aspirin was tested again in an independent study (Test #5) using a modified procedure carried out. UP736 was administered orally at a dose of 100 mg/kg, alone or in combination with aspirin at 3, 10 and 30 mg/kg to groups of 5 ICR derived male mice, weighing 22±2 g, 1 hour before transection of the tip (0.3 mm) of each tail. In addition, aspirin alone at 3, 10, 30 and 100 mg/kg was similarly given to mice. The mice, in holders, were immediately suspended vertically with the distal 2 cm of each tail immersed in a test tube containing saline at 37° C. A maximum cut-off time of 180 seconds was set. If bleeding ceased for 15 seconds or longer at any time during the 180 seconds observation period, the measurements were discontinued and any subsequent bleeding would not be considered. Prolongation of bleeding time by 50 percent or more (50%) relative to a control group of animals was considered significant. The results are consistent with those obtained from the above-described experiments (Test #3 and # 4).

COX-1 [4] = target: T2, COX-1 (Homo sapiens, UniProt P23219); details: cited from earlier work
T2 sequence (P23219 24-599): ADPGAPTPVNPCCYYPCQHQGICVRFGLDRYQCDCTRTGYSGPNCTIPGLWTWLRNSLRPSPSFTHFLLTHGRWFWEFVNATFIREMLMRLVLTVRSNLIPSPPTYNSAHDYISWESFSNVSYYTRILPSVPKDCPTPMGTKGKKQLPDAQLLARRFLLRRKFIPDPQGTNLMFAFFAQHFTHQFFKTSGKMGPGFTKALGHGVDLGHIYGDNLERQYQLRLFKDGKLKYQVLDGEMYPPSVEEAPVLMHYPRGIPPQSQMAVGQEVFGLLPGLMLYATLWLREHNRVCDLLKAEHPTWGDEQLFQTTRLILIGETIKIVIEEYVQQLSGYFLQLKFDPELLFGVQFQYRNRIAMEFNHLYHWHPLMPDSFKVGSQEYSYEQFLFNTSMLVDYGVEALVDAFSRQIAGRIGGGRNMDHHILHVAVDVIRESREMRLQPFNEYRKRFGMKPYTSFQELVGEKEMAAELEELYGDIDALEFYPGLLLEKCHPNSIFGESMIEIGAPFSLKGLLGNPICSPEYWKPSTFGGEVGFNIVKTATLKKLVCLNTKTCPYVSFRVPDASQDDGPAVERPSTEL

COX-1 [5] = target: T2, COX-1; assay: COX-1 enzymatic inhibition; assay type: biochemical
Source text: as §1

[6] = Oxygen Radical Absorption Capacity (ORAC)
Source text: […]. However, it can be preserved by a number of preservatives, including but not limited to stannous chloride (SnCl2), sodium bisulfate/metabisulfite (SBS), and other preservatives.

[7] = Test #3 (n = 5), 3 mg/kg orally
[8] = Test #3 (n = 5), 10 mg/kg orally
[9] = Test #3 (n = 5), 65 mg/kg orally
[10] = Test #3 (n = 5), 100 mg/kg orally
[11] = Test #3 and #4 combined (n = 9-10), 3 mg/kg orally
[12] = Test #3 and #4 combined (n = 9-10), 10 mg/kg orally
[13] = Test #3 and #4 combined (n = 9-10), 65 mg/kg orally
[14] = Test #3 and #4 combined (n = 9-10), 100 mg/kg orally
[15] = Test #4 (n = 5), 3 mg/kg orally
[16] = Test #4 (n = 5), 10 mg/kg orally
[17] = Test #4 (n = 5), 65 mg/kg orally
[18] = Test #4 (n = 5), 100 mg/kg orally

Compound: CC(=O)Oc1ccccc1C(=O)O [Aspirin]
COX-2 Selectivity Relative COX-1 (COX-2): 0.006 | Agonist Effect ([1]; Test #1, aspirin 3.0 μM): 0% | Antagonist Effect ([1]; Test #1, aspirin 3.0 μM): 1% | Agonist Effect ([1]; Test #1, aspirin 30.0 μM): 0% | Antagonist Effect ([1]; Test #1, aspirin 30.0 μM): 100% | Agonist Effect ([1]; Test #2, aspirin 3.0 μM): 0% | Antagonist Effect ([1]; Test #2, aspirin 3.0 μM): 8% | % Change Relative to Vehicle Group (bleeding time [2]; [7]): 18.7 ↑ % | Average Bleeding Time ± SD (bleeding time [2]; [7]): 77.2 ± 13.0 s | % Change Relative to Vehicle Group (bleeding time [2]; [8]): 14.5 ↑ % | Average Bleeding Time ± SD (bleeding time [2]; [8]): 74.4 ± 15.4 s | % Change Relative to Vehicle Group (bleeding time [2]; [9]): 61.5* ↑ % | Average Bleeding Time ± SD (bleeding time [2]; [9]): 105 ± 15.1 s | % Change Relative to Vehicle Group (bleeding time [2]; [10]): 83* ↑ % | Average Bleeding Time ± SD (bleeding time [2]; [10]): 119 ± 14.0 s | % Change Relative to Vehicle Group (bleeding time [2]; [11]): 21.7 ↑ % | Average Bleeding Time ± SD (bleeding time [2]; [11]): 83.3 ± 12.6 s | % Change Relative to Vehicle Group (bleeding time [2]; [12]): 15.6 ↑ % | Average Bleeding Time ± SD (bleeding time [2]; [12]): 79.5 ± 13.1 s | % Change Relative to Vehicle Group (bleeding time [2]; [13]): 46.1 ↑ % | Average Bleeding Time ± SD (bleeding time [2]; [13]): 100.5 ± 11.9 s | % Change Relative to Vehicle Group (bleeding time [2]; [14]): 78.2 ↑ % | Average Bleeding Time ± SD (bleeding time [2]; [14]): 122.6 ± 13.9 s | % Change Relative to Vehicle Group (bleeding time [2]; [15]): 23.1 ↑ % | Average Bleeding Time ± SD (bleeding time [2]; [15]): 89.4 ± 9.7 s | % Change Relative to Vehicle Group (bleeding time [2]; [16]): 16.5 ↑ % | Average Bleeding Time ± SD (bleeding time [2]; [16]): 84.6 ± 9.0 s | % Change Relative to Vehicle Group (bleeding time [2]; [17]): 32.2* ↑ % | Average Bleeding Time ± SD (bleeding time [2]; [17]): 96 ± 6.4 s | % Change Relative to Vehicle Group (bleeding time [2]; [18]): 73.8* ↑ % | Average Bleeding Time ± SD (bleeding time [2]; [18]): 126.2 ± 14.3 s | % Change Relative to Vehicle Group (bleeding time [3]; 3 mg/kg): 0% | Average Bleeding Time ± SD (bleeding time [3]; 3 mg/kg): 42.8 ± 26.2 s | % Change Relative to Vehicle Group (bleeding time [3]; 10 mg/kg): 0% | Average Bleeding Time ± SD (bleeding time [3]; 10 mg/kg): 39.8 ± 22.4 s | % Change Relative to Vehicle Group (bleeding time [3]; 30 mg/kg): 27 ↑ % | Average Bleeding Time ± SD (bleeding time [3]; 30 mg/kg): 56.4 ± 27.3 s | % Change Relative to Vehicle Group (bleeding time [3]; 100 mg/kg): 70* ↑ % | Average Bleeding Time ± SD (bleeding time [3]; 100 mg/kg): 75.0 ± 38.8 s | selective against COX-1 (COX-1 [4]): more than 150 times

COX-2 Selectivity Relative COX-1 (COX-2): 1
Compound: CC1(C)Cc2c(-c3ccccc3)c(-c3ccc(Cl)cc3)c(CC(=O)O)n2C1 [Licofelone]

Compound: CS(=O)(=O)c1ccc(C2=C(c3ccccc3)C(=O)OC2)cc1 [Rofecoxib]
COX-2 Selectivity Relative COX-1 (COX-2): 250

Compound: O=C(O)[C@H]1O[C@@H](Oc2cc3oc(-c4ccccc4)cc(=O)c3c(O)c2O)[C@H](O)[C@@H](O)[C@@H]1O [baicalin]
IC50 for COX-1 (COX-1 [5]): 0.44 μg/mL/unit of enzyme | IC50 for COX-2 (COX-2): 0.28 μg/mL/unit | selectivity against COX-2 (COX-2; COX-1 vs COX-2 IC50 profile): twice

Compound: catechin
Oxygen Radical Absorption Capacity (ORAC) [6]: 20,000
